Results from patent publication US6482805B2 (Parker Hughes Institute, priority 1998, dated 2002).

How the values were obtained:
human sperm = experiment: Time course of sperm immobilizing activity by CASA (Example 2); type: cell-based; conditions: 100 μM
Experimental: At timed intervals, duplicate aliquots (4-μl) were transferred to two 20 μm Microcell chambers and sperm motility was assessed by CASA.

[1] = test system: binding of human sperm to human zona; experiment: Human sperm-zona binding assay (Example 5); type: cell-based
Experimental: The human sperm-zona recognition and binding assay appears to predict the in vitro and in vivo fertilization outcome. […] Due to the variable number of sperm binding to human eggs, the sperm-zona binding ratio was used to assess sperm-zona binding capacity.
Following coincubation, the number of tightly bound green (SYBR 14) and blue (SYTO 17) sperm were assessed by laser scanning confocal microscopy. Frozen human eggs (n=46) were thawed and rinsed three times in BWW-0.3% BSA, and in BWW-3.5% BSA, before addition of sperm suspension. […] The first aliquot was incubated with 2.5 μM SYBR 14 (Molecular Probes) and the second aliquot was incubated with 5 μM SYTO 17. Following 30 minutes of incubation, sperm motility was assessed by CASA. Motile sperm with intensely stained green or blue nuclei were washed twice in BWW and one million motile sperm labeled with SYBR 14 (green) and SYTO 17 (blue) were added to dish containing human zona (n=2) under mineral oil and coincubated for 4 hours. Following extensive washing of eggs to dislodge any loosely adherent sperm, the eggs were mounted on glass slides and examined under a BioRad MRC-1024 Laser Scanning Confocal Microscope as described above. Using fluorescence imaging, the fluorescence emission of SYBR-14 and SYTO-17 localized on the sperm head was simultaneously recorded using 598/40 nm, and 680 DF32 emission/filter respectively. Confocal images of Z-sections were obtained using a Nikon […] (NA 1.4) objective and Kalman collection filter. Digitized images were processed with the Adobe Photoshop software and final images were printed using a Fujix Pictography 3000 color printer. The number of tightly bound green and blue-colored sperm nuclei adherent to each human egg were counted from the Z-sections of fluorescence images of each egg on all focal planes and expressed as a binding ratio.

[2] = test system: cervicovaginal epithelium of female CD-1 mice; experiment: Cervicovaginal tissue inflammation after repetitive intravaginal application in mice (Example 8); conditions: for neutrophils in cervicovaginal squamous epithelia (immunofluorescence): 5% in cream base intravaginally; for mice with inflammatory response or disruption of the squamous epithelia: 5% in cream base intravaginally daily for 5 or 20 days, 10 mice
Experimental: In particular, 30 female CD-1 mice, 6 months old were randomly divided into two groups (A and B). Each group was further divided into three subgroups of 5 mice. […] After 5 and 20 days respectively, mice were killed by cervical dislocation, and tissues from the genitourinary tract were fixed in 10% buffered formalin. To determine the degree of inflammation and membrane integrity of squamous epithelia, conventional paraffin-embedded sections (6-pm) were prepared and stained with hematoxylin and eosin and observed under 300× magnification with a Leica microscope interfaced with an image analysis system (Scion), and images were transferred to Adobe Photoshop software for printout. The four stages of the estrous cycle were determined histologically.
Following antigen retrieval by heating (93° C. for 10 min in 10 mM sodium citrate buffer, pH 6.0), sections were preincubated with 10% normal goat serum in PBS, treated with optimal dilution (5 μg/ml) of the mAb followed by FITC-conjugated goat anti-rat IgG (Pierce Chemical Co., Rockford, IL). Each incubation step lasted 60 min with 5 min PBS washes between each step. The slides were counterstained with PI (1 μg/ml), washed in deionized water, mounted in anti-fade (BioRad), and visualized by laser confocal microscopy as described above. Negative controls were carried out by replacing the primary mAb with PBS or using rat IgG2 as control mAb

female Swiss (CD-1) mice = experiment: Fertility of female mice after artificial insemination with intravaginal application (Example 7); type: in vivo, mouse
Excerpt: Because fertilization in vivo is dependent on successful sperm transport through the female genital tract, we next determined whether exposure of sperm to the WHI-07 in vivo affected the subsequent fertility outcome. Hormonally primed adult female Swiss (CD-1) mice were artificially inseminated with motile epididymal sperm via the cervix with and without prior intravaginal application of WHI-07 in a cream base. Females were examined 8 days later for the presence or absence of embryos in uteri.
More particularly, adult (5-6 months old) female CD-1 mice were superovulated by an intraperitoneal injection (i. p.) of 5 IU of pregnant mare's serum gonadotropin followed by an i.p. injection of 5 IU of human chorionic gonadotropin 46-48 hours later. Mice were randomly assigned to one of the two treatment groups (27 or 24/group); vehicle controls [cream base (Taro Pharmaceuticals, Hawthorne, N.J.) with 1% DMSO], or test group (cream base with 1% WHI-07 in 1% DMSO) and given intravaginally (50 μl) prior to artificial insemination. Caudae epididymal sperm were obtained from proven breeder adult CD-1 male (5-6 months old) [B. Hogan, R. Beddington, F. Costantini, E. Lacy, Eds., Manipulating the Mouse Embryo (Cold Spring Harbor Laboratory Press, Plainview, N.Y., 1994] and suspended in a modified Krebs Ringer-bicarbonate medium (M2; Gibco-BRL) supplemented with pyruvate, lactate, and glucose. Sperm were capacitated in M2 medium-5% BSA for 1 hour prior to use. For each experiment cauda epididymal sperm pooled from 25 male mice and adjusted to 1-2×10^6 motile sperm/50 μl were used for insemination. A 50 μl volume/mouse was ejected through a 1 ml syringe with a blunted 18 gauge needle. Preparations were analyzed for sperm concentration, motility, and sperm motion parameters by CASA using software designed for oval sperm head morphology (Hamilton Thorne). On day 8, individual females representing the control and test group were killed and their uteri were examined for the presence or absence of embryos. A total of three independent fertility experiments were performed.

HIV-1 strain HTLVIIIB = experiment: In vitro anti-HIV-1 activity, HTLVIIIB p24 assay in PBMC (Example 9); type: cell-based; conditions: Human immunodeficiency virus 1; HIV-1 replication in PBMC, p24 antigen production
Experimental: The HIV-1 strain, HTLVIIIB, which was propagated in CCRF-CEM cells, was used for in vitro assays of the anti-HIV-1 activity of selected novel WHI-07 analogues. Cell-free supernatants of HTLVIIIB-infected CCRF-CEM cells were harvested, dispensed into 1 ml aliquots, and frozen at −70° C. Titration of stock virus was performed by examining its cytopathic effects in MT-2 cells. [see, Uckun FM, et al., Antimicrob Agents Chemther 1998; 42:383-388]. Normal human peripheral blood mononuclear cells (PBMC) from HIV-negative donors were cultured for 72 h in RPMI 1640 supplemented with 20%(v/v) heat-inactivated fetal bovine serum (FBS), 3% interleukin-2, 2 mM L-glutamine, 25 mM HEPES, 2 g/L NaHCO3, 50 μg/ml gentamicin, and 4 μg/ml phytohemagglutinin prior to exposure to HIV-1 at a multiplicity of infection of 0.1 during a 1 h adsorption period at 37° C. in a humidified 5% CO2 atmosphere. […] Percent viral inhibition was calculated by comparing the p24 values from the drug-treated infected cells with p24 values from untreated infected cells (i.e., virus controls). […] A microculture tetrazolium assay, using 2,3-bis(2-methoxy-4-nitro-5-sulfophenyl)-5-[(phenylamino)-carbonyl]-2H-tetrazolium hydroxide, was performed to quantitate cellular proliferation.

[3] = experiment 1, 27 mice, 1% WHI-07 in cream base intravaginally, day 8
[4] = experiment 2, 27 mice, 1% WHI-07 in cream base intravaginally, day 8
[5] = experiment 3, 24 mice, 1% WHI-07 in cream base intravaginally, day 8
[6] = total of three experiments, 78 mice, p < 0.001 vs control

Compound | exposure time to complete sperm immobilization (human sperm) [min] | time required for 50% motility loss of progressively motile sperm (human sperm) [min] | mean sperm-zona binding ratio ([1]; sperm pretreated with 25 μM) | mean sperm-zona binding ratio ([1]; sperm pretreated with 50 μM) | mean sperm-zona binding ratio ([1]; sperm pretreated with 100 μM) | neutrophils in cervicovaginal squamous epithelia (immunofluorescence) [2] | mice with inflammatory response or disruption of the squamous epithelia [2] | No. of WHI-07-treated mice fertile (female Swiss (CD-1) mice; [3]) | WHI-07-treated mice fertile (%) (female Swiss (CD-1) mice; [3]) | No. of WHI-07-treated mice fertile (female Swiss (CD-1) mice; [4]) | WHI-07-treated mice fertile (%) (female Swiss (CD-1) mice; [4]) | No. of WHI-07-treated mice fertile (female Swiss (CD-1) mice; [5]) | WHI-07-treated mice fertile (%) (female Swiss (CD-1) mice; [5]) | No. of WHI-07-treated mice fertile (female Swiss (CD-1) mice; [6]) | WHI-07-treated mice fertile (%) (female Swiss (CD-1) mice; [6]) | IC50 (HIV-1 strain HTLVIIIB) [nM]
5-bromo-6-methoxy-5,6-dihydro-3 ′-azidothymidine-5 ′-(p-methoxyphenyl) methoxyalaninyl phosphate [WHI-05] | 60 | 17 | 0.18 | 0.07 | 0.10 | – | – | – | – | – | – | – | – | – | – | –
CCCCCCCCCc1ccc(OCCOCCOCCOCCOCCOCCOCCOCCOCCO)cc1 [Compound N-9, nonoxynol-9, reference compound] | – | – | – | – | – | intense positive staining | 9 of 10 | – | – | – | – | – | – | – | – | –
COC(=O)C(C)NP(=O)(OCC1OC(N2C(=O)NC(=O)C(C)(Br)C2OC)CC1N=[N+]=[N-])Oc1ccc(Br)cc1 (centres unmarked) [WHI-07, 5-Bromo-6-methoxy-5,6-dihydro-3′-azidothymidine-5′-(p-Bromophenyl Methoxyalaninyl Phosphate)] | 30 | 6 | 0.088 | 0.039 | 0.009 | absence of neutrophils | none of the 10 mice | 2 | 7.4 | 1 | 3.7 | 3 | 12.5 | 6 | 7.6 | 5
